# Data published in ChEMBL document CHEMBL2396653, “Synthesis and antimycobacterial evaluation of N-substituted 5-chloropyrazine-2-carboxamides” (Bioorg Med Chem Lett, 2013).
# What was measured:
# [1] = tested on: Mycobacterium tuberculosis variant bovis; assay: Antimycobacterial activity against pyrazinamide-resistant Mycobacterium bovis ATCC 35720 assessed as growth inhibition after 24 hrs to 2 weeks by microbroth dilution method; assay type: functional
# [2] = tested on: Mycobacterium tuberculosis variant bovis; assay: Antimycobacterial activity against pyrazinamide-resistant Mycobacterium bovis ATCC 27289 assessed as growth inhibition after 24 hrs to 2 weeks by microbroth dilution method; assay type: functional
smiles,measurement,setting,value
NC(=O)c1cnc(Cl)cn1,MIC,[1],8 µg/mL
same,MIC,[2],8 µg/mL
